Data published in article PMC12090182, “Repurposing of the RIPK1-Selective Benzo[1,4]oxazepin-4-one Scaffold for the Development of a Type III LIMK1/2 Inhibitor” (ACS Chemical Biology, 2025).
Read-outs that look alike come from different tables or passages of the source.

Tests used:
Experiment in all cases: biochemical
Format in all cases: binding
[1] = molecular target: 468 kinases including some pathogenic mutants (Homo sapiens, UniProt O75914); settings: PAK3 (Entrez PAK3), 100 nM; read-out: Percent Control
[2] = molecular target: 468 kinases including some pathogenic mutants (Homo sapiens, UniProt Q99759); settings: MAP3K3 (Entrez MAP3K3), 100 nM; read-out: Percent Control
[3] = molecular target: 468 kinases including some pathogenic mutants (Homo sapiens, UniProt Q9P1W9); settings: PIM2 (Entrez PIM2), 100 nM; read-out: Percent Control
[4] = molecular target: 468 kinases including some pathogenic mutants (Homo sapiens, UniProt Q16539); settings: p38-alpha (Entrez MAPK14), 1000 nM; read-out: Percent Control
[5] = molecular target: 468 kinases including some pathogenic mutants (Homo sapiens, UniProt Q13557); settings: CAMK2D (Entrez CAMK2D), 100 nM; read-out: Percent Control
[6] = molecular target: 468 kinases including some pathogenic mutants (Homo sapiens, UniProt O94806); settings: PRKD3 (Entrez PRKD3), 100 nM; read-out: Percent Control
[7] = molecular target: 468 kinases including some pathogenic mutants (Homo sapiens, UniProt Q96D53); settings: ADCK4 (Entrez ADCK4), 100 nM; read-out: Percent Control
[8] = molecular target: 468 kinases including some pathogenic mutants (Homo sapiens, UniProt P31152); settings: ERK4 (Entrez MAPK4), 100 nM; read-out: Percent Control
[9] = molecular target: 468 kinases including some pathogenic mutants (Homo sapiens, UniProt P04629); settings: TRKA (Entrez NTRK1), 100 nM; read-out: Percent Control
[10] = molecular target: 468 kinases including some pathogenic mutants (Homo sapiens, UniProt O96013); settings: PAK4 (Entrez PAK4), 100 nM; read-out: Percent Control
[11] = molecular target: 468 kinases including some pathogenic mutants (Homo sapiens, UniProt Q9UQ88); settings: CDC2L2 (Entrez CDC2L2), 100 nM; read-out: Percent Control
[12] = molecular target: 468 kinases including some pathogenic mutants (Homo sapiens, UniProt Q9H2X6); settings: HIPK2 (Entrez HIPK2), 100 nM; read-out: Percent Control
[13] = molecular target: 468 kinases including some pathogenic mutants (Homo sapiens, UniProt P36888); settings: FLT3-autoinhibited (Entrez FLT3), 100 nM; read-out: Percent Control
[14] = molecular target: 468 kinases including some pathogenic mutants (Homo sapiens, UniProt P54756); settings: EPHA5 (Entrez EPHA5), 100 nM; read-out: Percent Control
[15] = molecular target: 468 kinases including some pathogenic mutants (Homo sapiens, UniProt P00533, L861Q); settings: read-out: Percent Control
[16] = molecular target: 468 kinases including some pathogenic mutants (Homo sapiens, UniProt Q86V86); settings: PIM3 (Entrez PIM3), 100 nM; read-out: Percent Control
[17] = molecular target: 468 kinases including some pathogenic mutants (Homo sapiens, UniProt Q15746); settings: MYLK (Entrez MYLK), 100 nM; read-out: Percent Control
[18] = molecular target: 468 kinases including some pathogenic mutants (Homo sapiens, UniProt Q9UEE5); settings: DRAK1 (Entrez STK17A), 100 nM; read-out: Percent Control
[19] = molecular target: 468 kinases including some pathogenic mutants (Homo sapiens, UniProt Q9NRH2); settings: SNRK (Entrez SNRK), 1000 nM; read-out: Percent Control
[20] = molecular target: 468 kinases including some pathogenic mutants (Homo sapiens, UniProt O75582); settings: 1000 nM, read-out: Percent Control
[21] = molecular target: 468 kinases including some pathogenic mutants (Homo sapiens, UniProt P07949, V804L); settings: read-out: Percent Control
[22] = molecular target: 468 kinases including some pathogenic mutants (Homo sapiens, UniProt Q8TDR2); settings: STK35 (Entrez STK35), 1000 nM; read-out: Percent Control
[23] = molecular target: 468 kinases including some pathogenic mutants (Homo sapiens, UniProt Q13177); settings: PAK2 (Entrez PAK2), 100 nM; read-out: Percent Control
[24] = molecular target: 468 kinases including some pathogenic mutants (Homo sapiens, UniProt Q16584); settings: MLK3 (Entrez MAP3K11), 100 nM; read-out: Percent Control
[25] = molecular target: 468 kinases including some pathogenic mutants (Homo sapiens, UniProt P43405); settings: SYK (Entrez SYK), 100 nM; read-out: Percent Control
[26] = molecular target: 468 kinases including some pathogenic mutants (Homo sapiens, UniProt P48736); settings: PIK3CG (Entrez PIK3CG), 100 nM; read-out: Percent Control
[27] = molecular target: 468 kinases including some pathogenic mutants (Homo sapiens, UniProt Q9HC98); settings: NEK6 (Entrez NEK6), 1000 nM; read-out: Percent Control
[28] = molecular target: 468 kinases including some pathogenic mutants (Homo sapiens, UniProt P29376); settings: LTK (Entrez LTK), 100 nM; read-out: Percent Control

Sequence of 468 kinases including some pathogenic mutants (Homo sapiens, UniProt O75582) (O75582 whole entry, stated change not applied): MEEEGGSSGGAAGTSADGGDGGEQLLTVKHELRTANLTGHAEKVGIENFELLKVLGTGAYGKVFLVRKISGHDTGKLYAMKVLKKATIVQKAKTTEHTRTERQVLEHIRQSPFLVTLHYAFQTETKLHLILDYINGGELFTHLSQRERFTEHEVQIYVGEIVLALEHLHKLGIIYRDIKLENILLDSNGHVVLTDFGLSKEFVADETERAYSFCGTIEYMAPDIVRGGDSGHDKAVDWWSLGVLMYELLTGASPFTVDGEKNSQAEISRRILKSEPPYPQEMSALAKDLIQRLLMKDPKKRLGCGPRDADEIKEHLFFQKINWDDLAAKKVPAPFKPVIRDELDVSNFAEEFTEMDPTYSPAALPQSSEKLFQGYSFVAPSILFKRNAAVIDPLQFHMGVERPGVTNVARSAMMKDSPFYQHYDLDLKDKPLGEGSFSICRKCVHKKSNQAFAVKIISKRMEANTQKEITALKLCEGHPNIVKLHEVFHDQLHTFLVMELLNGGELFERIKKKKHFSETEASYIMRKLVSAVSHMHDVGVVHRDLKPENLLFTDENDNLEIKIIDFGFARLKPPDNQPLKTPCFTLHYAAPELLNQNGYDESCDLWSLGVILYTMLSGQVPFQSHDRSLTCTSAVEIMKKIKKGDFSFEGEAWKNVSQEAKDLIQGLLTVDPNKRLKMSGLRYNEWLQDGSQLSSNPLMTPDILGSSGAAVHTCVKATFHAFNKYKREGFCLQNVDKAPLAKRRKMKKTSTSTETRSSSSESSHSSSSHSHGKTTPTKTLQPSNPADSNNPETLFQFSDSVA
Sequence of 468 kinases including some pathogenic mutants (Homo sapiens, UniProt O96013) (O96013 whole entry, change not shown): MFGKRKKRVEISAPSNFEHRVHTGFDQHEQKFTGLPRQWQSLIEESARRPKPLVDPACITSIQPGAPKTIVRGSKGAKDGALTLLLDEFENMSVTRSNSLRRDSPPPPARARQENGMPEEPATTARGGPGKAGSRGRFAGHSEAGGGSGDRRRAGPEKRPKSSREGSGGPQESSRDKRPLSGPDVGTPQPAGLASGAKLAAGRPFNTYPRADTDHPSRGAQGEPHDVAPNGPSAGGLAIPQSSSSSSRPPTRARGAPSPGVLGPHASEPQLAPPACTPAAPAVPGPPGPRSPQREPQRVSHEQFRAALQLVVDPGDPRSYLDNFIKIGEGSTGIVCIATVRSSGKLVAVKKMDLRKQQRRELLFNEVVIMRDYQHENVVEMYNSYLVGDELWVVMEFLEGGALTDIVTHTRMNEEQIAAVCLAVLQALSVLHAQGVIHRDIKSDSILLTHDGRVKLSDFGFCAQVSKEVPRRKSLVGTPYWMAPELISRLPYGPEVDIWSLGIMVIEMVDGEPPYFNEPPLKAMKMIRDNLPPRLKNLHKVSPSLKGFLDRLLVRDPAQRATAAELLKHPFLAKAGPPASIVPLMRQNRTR
Sequence of 468 kinases including some pathogenic mutants (Homo sapiens, UniProt Q16584) (Q16584 whole entry, change not shown): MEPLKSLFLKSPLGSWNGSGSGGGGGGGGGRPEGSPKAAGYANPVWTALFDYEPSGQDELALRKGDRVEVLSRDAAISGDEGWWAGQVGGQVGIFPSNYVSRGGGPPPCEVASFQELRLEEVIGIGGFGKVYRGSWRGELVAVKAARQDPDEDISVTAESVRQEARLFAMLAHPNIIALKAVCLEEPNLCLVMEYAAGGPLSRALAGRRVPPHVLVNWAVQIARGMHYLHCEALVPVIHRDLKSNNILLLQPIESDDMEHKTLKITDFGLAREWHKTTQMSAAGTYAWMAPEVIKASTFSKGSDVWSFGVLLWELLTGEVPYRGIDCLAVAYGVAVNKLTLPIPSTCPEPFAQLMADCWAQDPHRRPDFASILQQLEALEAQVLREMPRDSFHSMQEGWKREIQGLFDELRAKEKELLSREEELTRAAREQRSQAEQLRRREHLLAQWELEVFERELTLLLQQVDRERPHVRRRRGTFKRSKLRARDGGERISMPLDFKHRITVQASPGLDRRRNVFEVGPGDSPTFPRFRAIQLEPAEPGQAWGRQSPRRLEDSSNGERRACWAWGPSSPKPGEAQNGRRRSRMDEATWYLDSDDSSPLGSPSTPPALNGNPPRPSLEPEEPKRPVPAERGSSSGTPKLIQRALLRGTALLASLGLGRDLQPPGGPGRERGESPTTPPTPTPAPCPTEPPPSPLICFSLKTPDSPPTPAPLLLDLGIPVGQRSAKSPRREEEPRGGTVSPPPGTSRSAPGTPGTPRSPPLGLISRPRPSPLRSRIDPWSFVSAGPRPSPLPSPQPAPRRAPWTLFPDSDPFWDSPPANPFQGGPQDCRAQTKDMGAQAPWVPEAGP
Sequence of 468 kinases including some pathogenic mutants (Homo sapiens, UniProt O94806) (O94806 whole entry, change not shown): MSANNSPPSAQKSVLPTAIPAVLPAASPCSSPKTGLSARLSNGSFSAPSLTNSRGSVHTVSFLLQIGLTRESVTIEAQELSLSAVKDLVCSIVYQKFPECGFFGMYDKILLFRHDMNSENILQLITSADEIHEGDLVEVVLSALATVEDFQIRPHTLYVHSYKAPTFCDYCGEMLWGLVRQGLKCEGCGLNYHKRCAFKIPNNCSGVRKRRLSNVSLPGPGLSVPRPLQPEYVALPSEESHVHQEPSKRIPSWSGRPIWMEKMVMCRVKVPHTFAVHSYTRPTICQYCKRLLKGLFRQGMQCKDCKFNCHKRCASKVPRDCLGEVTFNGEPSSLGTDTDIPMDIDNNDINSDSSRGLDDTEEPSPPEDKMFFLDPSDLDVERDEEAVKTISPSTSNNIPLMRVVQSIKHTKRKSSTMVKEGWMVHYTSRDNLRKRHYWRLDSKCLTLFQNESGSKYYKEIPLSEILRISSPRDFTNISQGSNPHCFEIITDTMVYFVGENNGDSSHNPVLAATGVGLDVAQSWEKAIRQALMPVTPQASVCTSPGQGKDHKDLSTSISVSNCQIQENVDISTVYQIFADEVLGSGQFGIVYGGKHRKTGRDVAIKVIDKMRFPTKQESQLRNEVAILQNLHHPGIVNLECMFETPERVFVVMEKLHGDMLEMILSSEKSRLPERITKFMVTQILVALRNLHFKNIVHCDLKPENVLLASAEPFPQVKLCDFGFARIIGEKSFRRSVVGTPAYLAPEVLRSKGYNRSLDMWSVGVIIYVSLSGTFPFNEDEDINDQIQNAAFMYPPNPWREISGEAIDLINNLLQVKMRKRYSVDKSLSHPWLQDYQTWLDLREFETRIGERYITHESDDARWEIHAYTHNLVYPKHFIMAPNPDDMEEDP
Sequence of 468 kinases including some pathogenic mutants (Homo sapiens, UniProt Q13177) (Q13177 whole entry, change not shown): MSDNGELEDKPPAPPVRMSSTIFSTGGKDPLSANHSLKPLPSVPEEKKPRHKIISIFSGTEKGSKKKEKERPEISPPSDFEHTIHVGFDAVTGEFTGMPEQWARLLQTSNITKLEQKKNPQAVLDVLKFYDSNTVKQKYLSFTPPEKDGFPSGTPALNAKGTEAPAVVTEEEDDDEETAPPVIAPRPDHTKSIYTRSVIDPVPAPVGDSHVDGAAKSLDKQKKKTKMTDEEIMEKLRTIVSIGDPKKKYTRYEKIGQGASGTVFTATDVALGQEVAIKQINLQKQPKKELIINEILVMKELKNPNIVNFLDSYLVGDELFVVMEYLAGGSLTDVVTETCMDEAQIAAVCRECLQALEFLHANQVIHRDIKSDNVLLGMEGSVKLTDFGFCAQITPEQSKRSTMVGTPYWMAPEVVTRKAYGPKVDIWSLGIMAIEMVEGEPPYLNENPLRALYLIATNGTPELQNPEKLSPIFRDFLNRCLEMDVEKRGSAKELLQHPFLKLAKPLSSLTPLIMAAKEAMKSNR
Sequence of 468 kinases including some pathogenic mutants (Homo sapiens, UniProt P31152) (P31152 whole entry, change not shown): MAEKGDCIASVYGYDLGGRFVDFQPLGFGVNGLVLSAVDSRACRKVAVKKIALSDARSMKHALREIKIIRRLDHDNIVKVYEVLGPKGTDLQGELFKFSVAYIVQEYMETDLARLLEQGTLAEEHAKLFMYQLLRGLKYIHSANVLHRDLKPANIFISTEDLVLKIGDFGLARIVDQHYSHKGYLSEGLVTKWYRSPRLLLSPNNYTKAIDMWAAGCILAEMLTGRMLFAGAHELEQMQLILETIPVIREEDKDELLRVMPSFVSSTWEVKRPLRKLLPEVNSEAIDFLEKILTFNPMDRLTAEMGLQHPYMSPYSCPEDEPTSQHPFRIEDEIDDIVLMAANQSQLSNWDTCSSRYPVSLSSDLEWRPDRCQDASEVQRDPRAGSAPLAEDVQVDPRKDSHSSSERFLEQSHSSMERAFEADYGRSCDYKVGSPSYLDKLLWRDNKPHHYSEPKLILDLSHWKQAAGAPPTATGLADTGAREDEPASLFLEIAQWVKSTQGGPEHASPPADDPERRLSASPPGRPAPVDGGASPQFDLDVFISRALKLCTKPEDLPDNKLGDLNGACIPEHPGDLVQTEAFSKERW
Sequence of 468 kinases including some pathogenic mutants (Homo sapiens, UniProt Q9UEE5) (Q9UEE5 whole entry, change not shown): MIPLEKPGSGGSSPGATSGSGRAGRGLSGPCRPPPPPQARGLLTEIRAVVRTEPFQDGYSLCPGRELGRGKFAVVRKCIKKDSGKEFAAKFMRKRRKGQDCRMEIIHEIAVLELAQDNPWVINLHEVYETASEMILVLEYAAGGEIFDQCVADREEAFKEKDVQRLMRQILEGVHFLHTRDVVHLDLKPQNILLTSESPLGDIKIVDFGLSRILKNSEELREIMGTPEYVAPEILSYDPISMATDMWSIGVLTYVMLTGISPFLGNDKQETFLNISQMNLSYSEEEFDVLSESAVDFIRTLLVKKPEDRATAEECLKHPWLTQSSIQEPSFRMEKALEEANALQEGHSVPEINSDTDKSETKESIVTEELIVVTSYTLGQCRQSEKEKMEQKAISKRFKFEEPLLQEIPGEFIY

## CN1C(=O)[C@@H](N2CCc3c(nn(Cc4ccccc4)c3C(N)=O)C2=O)COc2cc(Cl)ccc21 [Compound 10, (S)-2-benzyl-6-(8-chloro-5-methyl-4-oxo-2,3,4,5-tetrahydrobenzo[b][1,4]oxazepin-3-yl)-7-oxo-4,5,6,7-tetrahydro-2H-pyrazolo[3,4-c]pyridine-3-carboxamide]
[1]
  remaining activity at 0.1 µM: 53%
[2]
  remaining activity at 0.1 µM: 66%
[3]
  remaining activity at 0.1 µM: 83%
[4]
  remaining activity at 1 µM: 100%
[5]
  remaining activity at 0.1 µM: 80%
[6]
  remaining activity at 0.1 µM: 76%
[7]
  remaining activity at 0.1 µM: 88%
[8]
  remaining activity at 0.1 µM: 86%
[9]
  remaining activity at 0.1 µM: 99%
[10]
  remaining activity at 0.1 µM: 100%
[11]
  remaining activity at 0.1 µM: 100%
[12]
  remaining activity at 0.1 µM: 78%
[13]
  remaining activity at 0.1 µM: 84%
[14]
  remaining activity at 0.1 µM: 74%
[15]
  remaining activity at 0.1 µM: 100%
[16]
  remaining activity at 0.1 µM: 87%
[17]
  remaining activity at 0.1 µM: 89%
[18]
  remaining activity at 0.1 µM: 84%
[19]
  remaining activity at 1 µM: 100%
[20]; RPS6KA5(Kin.Dom.1-N-terminal) (Entrez RPS6KA5)
  remaining activity at 1 µM: 100%
[20]; RPS6KA5(Kin.Dom.2-C-terminal) (Entrez RPS6KA5)
  remaining activity at 1 µM: 100%
[21]
  remaining activity at 1 µM: 100%
[22]
  remaining activity at 1 µM: 100%
[23]
  remaining activity at 0.1 µM: 88%
[24]
  remaining activity at 0.1 µM: 100%
[25]
  remaining activity at 0.1 µM: 100%
[26]
  remaining activity at 0.1 µM: 65%
[27]
  remaining activity at 1 µM: 100%
[28]
  remaining activity at 0.1 µM: 54%
